Data published in article PMC9925730, “Controlled sequential in situ self-assembly and disassembly of a fluorogenic cisplatin prodrug for cancer theranostics” (Nature Communications, 2023).
“And” between values parts separate entries of the source, which are not always exact repeats. Equal values may be shown once.

Key:
[1] = Body weight of mice with orthotopic HepG2/Luc liver tumors; type: in vivo; details: individual samples, in g (unit assumed)
[2] = Blood circulation half-life (ICP-OES of Pt); type: in vivo, mice; details: for blood circulation half-life t1/2: mice, i.v., 2.25 mg kg-1 Pt
Description: Scale bar: 100 μm. The occurrence of hepatotoxicity in […]-treated mice could be presumably owing to (1) the large size of […] (~160 nm) that caused a high liver uptake and (2) the fast release of cytotoxic cisplatin from the liver-resided […] by hepatic GSH that led to a high concentration of cisplatin in the liver. One representative experiment out of two is shown. 30 PBS CDDP Pt IV NP sP- Cy Pt 20 10 0 013 619 25 Days Supplementary Figure 34. Monitoring of the body weight of mice with orthotopic HepG2/Luc liver tumors following indicated treatments. […] Values denote mean ± s.d. (n = 4 independent animals). 120 CDDP Pt IV NP s […] 40 0 0 25510 2015 Time (h) Supplementary Figure 35. Examination of the blood circulation half-lives of […], and CDDP. Plots of the relative amount of Pt (%) in the blood after i.v. injection of […], and CDDP (at a dose of 2.25 mg kg-1 Pt) into healthy mice. Data are mean ± s.d. (n = 3 independent animals). […] 0.23 h). […] The residues were then diluted with 5 mL 2% HNO3 and 5% HCl solution, and the concentrations of Pt element were determined by ICP-OES, which were further applied to calculate the contents of Pt element in the blood. The plot of the percentage of Pt element remained in the blood versus injection time to yield the pharmacokinetic time. Urine and Faeces analysis. […] Urine and faeces were collected at 2 (for 0-2 h), 4 (for 2-4 h), 8 (for 4- 8 h) and 12 h (for […]), which were diluted in methanol and centrifuged at 3,600 × g for 10 min, followed by filtering via a 0.22 μm syringe filter. The solutions were analyzed by HPLC (660 nm detection) to characterize all the mCy-containing compounds. Using the established standard curves for […] Cy-COOH, the amount of each compound in the urine and faeces could be calculated, which were further applied to determine the percentage of them in the urine and faeces. The data were summarized in Supplementary Tables 5-8. […] Urine and faeces were collected and weighed. The urine and faeces were digested with concentrated HNO3 (65~70%) and HCl (36~38%) at 90 °C for 24 h. The solution was diluted to 5 mL 2% HNO3 and 5% HCl solution, and the concentration of Pt element was measured by ICP-OES, which was further applied to calculate the percentage of Pt in corresponding urine and faeces. The data were summarized in Supplementary Tables 9 and 10. 47

[3] = test system: s.c. HeLa tumors; experiment: Chemotherapy of s.c. HeLa tumors in vivo; set-up: species or system mice; details: for tumor volume growth on day 21: s.c. HeLa, 2.25 mg kg^−1 Pt i.v. on day 0, 3, 6, 9, 12
Procedure: Sixteen mice with s.c. […] Each experiment was conducted in four mice.

[4] = LogP measurement in solutions; type: physicochemical; details: octanol / octanol-saturated water
Description: incompatibility between particles i and j. Considering the relative position and chemical components of all the beads, we always keep aAB = aAC = 28, aAS = aCS = 25, and aBS = 35. The concentration of ABC or AB is fixed at 0.03. We performed the dynamics of total 81 000 DPD beads in a cubic box (303) under the periodic boundary conditions.
In these conditions, we carry out 1.0 × 106 steps for each simulation.
Molecular simulation using the Materials Studio program. For each molecule, the most favourable crystal packing was predicted using the Polymorph module as implemented in Materials Studio. The crystal structure prediction protocol includes three parts, Packing, Geometry Optimization and Clustering. […]
Evaluation of the dephosphorylated efficacy of P-CyPt towards ALP. […] The resulting fluorescence intensities in each well in the first 30 minutes were recorded on a Spark™ 10M Multimode Microplate Reader (λex/em = 680/710 nm), and every two-minute intervals record one point. The amount of CyPt at each time point was determined by a standard curve under the same […]
LogP measurement in solutions. […] The UV-vis absorption spectroscopy or fluorescence spectrum was recorded after being diluted in MeOH/H2O (1:1) system (<1% octanol). The logP value was calculated by dividing the amount in the octanol layer to […]

Compound | Body weight of mice (Supplementary Fig. 34) ([1]; time 0 d) | Body weight of mice (Supplementary Fig. 34) ([1]; time 3 d) | Body weight of mice (Supplementary Fig. 34) ([1]; time 6 d) | Body weight of mice (Supplementary Fig. 34) ([1]; time 9 d) | Body weight of mice (Supplementary Fig. 34) ([1]; time 12 d) | Body weight of mice (Supplementary Fig. 34) ([1]; time 15 d) | Relative Pt amount in blood ([2]; Time 0 h, individual mice) | Relative Pt amount in blood ([2]; Time 0 h, mean of 3 mice) | Relative Pt amount in blood ([2]; Time 0.5 h, individual mice) | Relative Pt amount in blood ([2]; Time 0.5 h, mean of 3 mice) | Relative Pt amount in blood ([2]; Time 1 h, individual mice) | Relative Pt amount in blood ([2]; Time 1 h, mean of 3 mice) | Relative Pt amount in blood ([2]; Time 2 h, individual mice) | Relative Pt amount in blood ([2]; Time 2 h, mean of 3 mice) | Relative Pt amount in blood ([2]; Time 4 h, individual mice) | Relative Pt amount in blood ([2]; Time 4 h, mean of 3 mice) | Relative Pt amount in blood ([2]; Time 8 h, individual mice) | Relative Pt amount in blood ([2]; Time 8 h, mean of 3 mice) | Relative Pt amount in blood ([2]; Time 12 h, individual mice) | Relative Pt amount in blood ([2]; Time 12 h, mean of 3 mice) | further results
[NH2][Pt]([NH2])([Cl])[Cl] [CDDP, cisplatin] | 19.83 and 20.11 and 22.01 | 18.72 and 20.66 and 21.22 | 17.7 and 19.43 and 21.14 | 17.17 and 18.45 and 20.33 | 16.32 and 17.76 and 19.54 | 16.24 and 17.17 and 19.09 | 93.8305 and 92.1406 and 114.029 | 100 | 57.2961 and 52.6288 and 39.5118 | 49.8122 | 22.492 and 12.6341 and 19.9651 | 18.3637 | 7.725 and 8.771 and 6.76 | 7.752 | 2.808 and 1.569 and 2.181 | 2.186 | 1.408 and 0.5955 and 1.521 | 1.175 | 1.746 and 1.28 and 0.8611 | 1.2956 | Relative Pt amount in blood ([2]; Time 24 h, individual mice): 1.634 and 0.8852 and 0.6518; Relative Pt amount in blood ([2]; Time 24 h, mean of 3 mice): 1.057; blood circulation half-life t1/2 [2]: 43.8 ± 2.4 min; tumor volume growth on day 21 [3]: ~ 15.8 fold
CC1(C)C(/C=C/C2=C3Oc4cc(O)c(Cl)cc4C=C3CCC2)=[N+](CCCNC(=O)[C@@H](Cc2ccccc2)NC(=O)[C@@H](Cc2ccccc2)NC(=O)CCC(=O)[O][Pt]([NH2])([NH2])([OH])([Cl])[Cl])c2ccccc21 [CyPt] |  |  |  |  |  |  |  |  |  |  |  |  |  |  |  |  |  |  |  |  | LogP value [4]: 2.50 ± 0.03
CC1(C)C(/C=C/C2=C3Oc4cc(OP(=O)(O)O)c(Cl)cc4C=C3CCC2)=[N+](CCCNC(=O)[C@@H](Cc2ccccc2)NC(=O)[C@@H](Cc2ccccc2)NC(=O)CCC(=O)[O][Pt]([NH2])([NH2])([OH])([Cl])[Cl])c2ccccc21 [P-CyPt] | 18.59 and 19.8 and 19.81 | 18.83 and 19.54 and 20.74 | 17.51 and 20.1 and 20.66 | 18.1 and 20.43 and 20.94 | 19.14 and 19.19 and 21.74 | 19.31 and 19.45 and 21.01 | 89.0517 and 110.783 and 100.165 | 100 | 75.3589 and 72.0355 and 86.1448 | 77.8464 | 48.6558 and 63.4564 and 58.4934 | 56.8685 | 21.7134 and 35.2733 and 24.195 | 27.0606 | 12.3988 and 8.818 and 6.257 | 9.158 | 7.923 and 5.247 and 4.422 | 5.864 | 4.1743 and 2.189 and 3.164 | 3.176 | LogP value [4]: 0.68 ± 0.03; Relative Pt amount in blood ([2]; Time 24 h, individual mice): 1.657 and 1.56 and 1.79; Relative Pt amount in blood ([2]; Time 24 h, mean of 3 mice): 1.669; blood circulation half-life t1/2 [2]: 32.4 ± 3.6 min; average tumor weight at end of treatment ([3]; day 21): significantly smaller than the other three groups; tumor volume growth on day 21 [3]: no apparent tumor growth
